Converted amounts (≈) assume the structure as drawn.
Experiments:
[1] = cited from earlier work
protein synthesis = conditions: read-out: IC50 (inhibition of protein synthesis); in vitro protein translation assay
[2] = cited from earlier work; remark: listed apart in the source
MbtA [3] = target: T1, MbtA (Mycobacterium tuberculosis, UniProt P71716); conditions: cited from earlier work; for ΔG^0 (free energy of binding): acyladenylate fragments
MbtA [4] = target: T1, MbtA; format: biochemical; conditions: for fold loss of potency (KI^app) relative to 6 / fold increase in potency / binding affinity (KI^app) relative to 6: relative to parent compound 6
M. tuberculosis H37Rv [5] = test: M. tuberculosis H37Rv MIC assay; format: cell-based, Mycobacterium tuberculosis; conditions: ratio of selectivity factors
MbtA [6] = target: T1, MbtA; format: binding; conditions: ITC
[7] = target: cysteine adenylation domain in the multifunctional NRPS module known as HMWP2; conditions: read-out: Ki^app; cited from earlier work
M. tuberculosis H37Rv [8] = conditions: under the assay conditions; positive control; cited from earlier work
[9] = saturating salicylic acid, 298 K

T1 sequence (P71716 whole entry, the tested form may be a part): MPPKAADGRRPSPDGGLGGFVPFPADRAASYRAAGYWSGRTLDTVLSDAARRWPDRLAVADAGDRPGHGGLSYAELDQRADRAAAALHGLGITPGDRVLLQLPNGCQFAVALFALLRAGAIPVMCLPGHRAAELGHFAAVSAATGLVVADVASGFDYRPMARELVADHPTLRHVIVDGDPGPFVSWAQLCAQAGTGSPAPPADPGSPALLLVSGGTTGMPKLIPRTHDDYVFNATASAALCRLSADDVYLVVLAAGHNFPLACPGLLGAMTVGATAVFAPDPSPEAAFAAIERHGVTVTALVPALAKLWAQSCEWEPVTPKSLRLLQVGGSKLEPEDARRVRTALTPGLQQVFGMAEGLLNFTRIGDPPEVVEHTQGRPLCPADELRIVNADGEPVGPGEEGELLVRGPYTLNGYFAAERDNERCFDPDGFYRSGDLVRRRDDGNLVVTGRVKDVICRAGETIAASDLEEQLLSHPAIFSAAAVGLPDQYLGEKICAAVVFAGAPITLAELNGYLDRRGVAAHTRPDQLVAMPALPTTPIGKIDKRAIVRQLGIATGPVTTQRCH

**Q.** For “5′-O-[N-(salicyl)sulfamoyl]adenosine [Compound 6]”, which “stability in human plasma” value [1] is on record?
**A.** The value was “stable”.

**Q.** What about the IC50 (protein synthesis) of the same compound?
**A.** Its IC50 is > 100000 nM.

**Q.** And the “stability in human liver microsomes” value [2]?
**A.** The value was “stable”.

**Q.** Which “ΔG^0 (free energy of binding)” value (MbtA [3]) does the source give for `Nc1ncnc2c1ncn2[C@@H]1O[C@H](COP(=O)(O)O)[C@@H](O)[C@H]1O` [AMP, adenosine monophosphate] here?
**A.** The value was -5.0 kcal/mol.

**Q.** Which “fold loss of potency (KI^app) relative to 6” value (MbtA [4]) does the source give for `CCN(CC)CC.Nc1ncnc2c1ccn2[C@@H]1O[C@H](COS(=O)(=O)NC(=O)c2ccccc2O)[C@@H](O)[C@H]1O` [Compound 7, 7-Deaza-5′-O-[N-(2-hydroxybenzoyl)sulfamoyl]adenosine Triethylammonium Salt] here?
**A.** Its value is 4 fold.

**Q.** Which “fold loss of potency (KI^app) relative to 6” value (MbtA [4]) does the source give for `CCN(CC)CC.O=C(NS(=O)(=O)OC[C@H]1O[C@@H](n2cnc3c(=O)[nH]cnc32)[C@H](O)[C@@H]1O)c1ccccc1O` [Compound 9, 5′-O-[N-(2-Hydroxybenzoyl)sulfamoyl]inosine Triethylammonium Salt] here?
**A.** The value was 121 fold.

**Q.** Which “fold activity difference between N-6-dimethyl 10 and N-6-methyl 11” value (MbtA [4]; 10 versus 11) does the source give for `CCN(CC)CC.CN(C)c1ncnc2c1ncn2[C@@H]1O[C@H](COS(=O)(=O)NC(=O)c2ccccc2O)[C@@H](O)[C@H]1O` [Compound 10, 5′-O-[N-(2-Hydroxybenzoyl)sulfamoyl]-N^6,N^6′-dimethyladenosine Triethylammonium Salt] here?
**A.** Its value is ~ 238 fold.

**Q.** What about the “fold loss of potency (KI^app) relative to 6” value (MbtA [4]) of the same compound?
**A.** Its value is 58 fold.

**Q.** For `CC(C)CNc1ncnc2c1ncn2[C@@H]1O[C@H](COS(=O)(=O)[N-]C(=O)c2ccccc2O)[C@@H](O)[C@H]1O.[Na+]` [Compound 15, 5′-O-[N-(2-Hydroxybenzoyl)sulfamoyl]-N^6-isobutyladenosine Sodium Salt], which “fold loss of potency (KI^app) relative to 6” value (MbtA [4]) is on record?
**A.** Its value is 1140 fold.

**Q.** Which “fold increase in potency / binding affinity (KI^app) relative to 6” value (MbtA [4]) does the source give for `CCN(CC)CC.O=C(NS(=O)(=O)OC[C@H]1O[C@@H](n2cnc3c(NC4CC4)ncnc32)[C@H](O)[C@@H]1O)c1ccccc1O` [Compound 16, N^6-Cyclopropyl-5′-O-[N-(2-hydroxybenzoyl)sulfamoyl]adenosine Triethylammonium Salt] here?
**A.** Its value is 3.5 fold.

**Q.** And the “enhancement in selectivity S relative to Sal-AMS 6” value (M. tuberculosis H37Rv [5])?
**A.** The value was 16 fold.

**Q.** With `O=C([N-]S(=O)(=O)OC[C@H]1O[C@@H](n2cnc3c(NC4CCC4)ncnc32)[C@H](O)[C@@H]1O)c1ccccc1O.[Na+]` [Compound 17, N^6-Cyclobutyl-5′-O-[N-(2-hydroxybenzoyl)sulfamoyl]adenosine Sodium Salt] as the compound, how does the “fold loss of potency (KI^app) relative to 6” value (MbtA [4]) read?
**A.** Its value is 124 fold.

**Q.** Which “fold increase in potency / binding affinity (KI^app) relative to 6” value (MbtA [4]) does the source give for `CCN(CC)CC.Nc1nc(I)nc2c1ncn2[C@@H]1O[C@H](COS(=O)(=O)NC(=O)c2ccccc2O)[C@@H](O)[C@H]1O` [Compound 23, 5′-O-[N-(2-Hydroxybenzoyl)sulfamoyl]-2-iodoadenosine Triethylammonium Salt] here?
**A.** The value was 2 fold.

**Q.** For `CCN(CC)CC.Nc1nc(Nc2ccccc2)nc2c1ncn2[C@@H]1O[C@H](COS(=O)(=O)NC(=O)c2ccccc2O)[C@@H](O)[C@H]1O` [Compound 24, 2-Anilino-5′-O-[N-(2-hydroxybenzoyl)sulfamoyl]adenosine Triethylammonium Salt], which “fold increase in potency / binding affinity (KI^app) relative to 6” value (MbtA [4]) is on record?
**A.** Its value is 7 fold.

**Q.** With `CCN(CC)CC.Nc1nc(C#Cc2ccccc2)nc2c1ncn2[C@@H]1O[C@H](COS(=O)(=O)NC(=O)c2ccccc2O)[C@@H](O)[C@H]1O` [Compound 25, 5′-O-[N-(2-Hydroxybenzoyl)sulfamoyl]-2-(phenylethynyl)adenosine Triethylammonium Salt] as the compound, how does the “fold increase in potency / binding affinity (KI^app) relative to 6” value (MbtA [4]) read?
**A.** The value was 17 fold.

**Q.** With `CCN(CC)CC.Nc1nc(-c2ccccc2)nc2c1ncn2[C@@H]1O[C@H](COS(=O)(=O)NC(=O)c2ccccc2O)[C@@H](O)[C@H]1O` [Compound 26, 5′-O-[N-(2-Hydroxybenzoyl)sulfamoyl]-2-phenyladenosine Triethylammonium Salt] as the compound, how does the “ΔG^0” value (MbtA [6]) read?
**A.** Its value is -17.5 kcal/mol.

**Q.** What about the ΔH (MbtA [6]; [9]) of the same compound?
**A.** The ΔH was -15.9 ± 0.6 kcal/mol.

**Q.** And the “−TΔS” value (MbtA [6]; [9])?
**A.** The value was -1.6 ± 1.4 kcal/mol.

**Q.** For `Nc1nc(-c2ccccc2-c2ccccc2)nc2c1ncn2[C@@H]1O[C@H](COS(=O)(=O)[N-]C(=O)c2ccccc2O)[C@@H](O)[C@H]1O.[Na+]` [Compound 27, 2-(Biphen-2-yl)-5′-O-[N-(2-hydroxybenzoyl)sulfamoyl]adenosine Sodium Salt], which “fold loss in potency compared to 26” value (MbtA [4]; 27 compared to 26) is on record?
**A.** The value was 174 fold.

**Q.** With `Nc1ncnc2c1ncn2[C@@H]1O[C@H](COS(=O)(=O)NC(=O)[C@@H](N)CS)[C@@H](O)[C@H]1O` [cysteyl-AMS] as the compound, how does the Ki [7] read?
**A.** The Ki was 240 nM.

**Q.** With `NNC(=O)c1ccncc1` [isoniazid] as the compound, how does the MIC99 (M. tuberculosis H37Rv [8]) read?
**A.** The MIC99 was 0.18 µM (≈ 0.0247 µg/mL).

**Q.** What does the source list for `O=C(O)c1ccccc1O` [salicylic acid]?
**A.** ΔG^0 (free energy of binding) (MbtA [3]): -7.9 kcal/mol; KA(Sal) (MbtA [3]; association constant with MbtA): 664000 M⁻¹; ΔH(Sal) (MbtA [3]; enthalpy with MbtA): -6.77 kcal/mol; Kd (MbtA [3]; weak ligand for ITC displacement): 1630 ± 520 nM
